Assays:
cathepsin K (CTSK) = target: T1, cathepsin K (CTSK) (Homo sapiens, UniProt P43235); assay: CTSK activation of probe adsorbed on HA; assay type: biochemical; settings: probe 10 μM on HA 10 mg/mL (30 min), then CTSK 200 ng/mL, n = 3
T1 sequence (P43235 115-329): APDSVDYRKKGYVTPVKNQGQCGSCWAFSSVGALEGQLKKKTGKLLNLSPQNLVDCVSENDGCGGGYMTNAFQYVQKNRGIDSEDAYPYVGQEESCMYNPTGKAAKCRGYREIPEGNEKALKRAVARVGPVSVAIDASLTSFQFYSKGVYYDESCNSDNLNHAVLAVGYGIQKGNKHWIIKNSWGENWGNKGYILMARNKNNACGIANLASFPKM
Description: In Vitro bone-binding and CTSK activation assay. Hydroxyapatite (HA) was used as a substitute for bone in vitro to evaluate the bone-binding ability of CTSK-APPA and CTSK-APP. CTSK-APPA or CTSK-APP (10 μM) was mildly stirred with HA (10 mg/mL) at 37 °C for different times (0, 10, 30, 60, and 120 min). The mixture was centrifugated at 4000 g for 5 min and then washed with a 10-fold excess of PBS (1×) three times. The efficiency of HA binding was determined from the fluorescence intensities of the precipitation according to the equation: (F – Fblank)/(F0 – Fblank)*100%, where F represents the fluorescence intensity of the precipitation incubated with HA for a determined time, and Fblank represents the blank fluorescence intensity. After verifying the appropriate bone-binding time, CTSK-APPA or CTSK-APP (10 μM) was mixed with HA (10 mg/mL) at 37 °C for 30 min, and then CTSK (200 ng/mL) was added to the corresponding mixture and incubated at 37 °C for another 1 h under mild stirring. The mixture was centrifugated at 4000 g for 5 min and then washed with a 10-fold excess of MES buffer (50 mM, pH 6.0) three times. Fluorescence images were captured by using the IVIS Spectrum imaging system with excitation at 660 ± 10 nm and emission at 710 ± 10 nm. PA images were captured by using a MSOT scanner with excitation at 700 nm. […]

[1] = test system: CTSK-overexpressing OCs on calf bone slice; assay: In vitro bone resorption imaging assay; assay type: cell-based, C57BL/6J mice; settings: probe 5 μM, 37 °C, 2 h; Ex 660 nm, Em 710 nm; n = 3
Description: PS. RAW 264.7 cells and BMMs were maintained in an atmosphere of 5% CO2 and 95% humidified air at 37 °C. The medium was changed every day.
Cell cytotoxicity assay. MDA-MB-231/Luc and RAW 264.7 cells were seeded in 96-well plates (5×10^3 cells per well) for 24 h and then incubated with CTSK-APPA or CTSK-APP (5, 10, 20, 50 μM) or saline for 24 h. The medium was removed and cells were incubated with CCK-8 (0.5 mg/mL) for another 1 h. The absorbance of the mixture at 450 nm was measured by using a microplate reader. Cell viability was expressed by the ratio of the absorbance of the cells incubated with the probes to that of the cells incubated with culture medium only.
In vitro osteoclast differentiation. Bone marrow-derived macrophages were isolated from the femurs and tibias of 4-week-old C57BL/6J mice and cultured in a complete medium containing M-CSF (30 ng/mL) for 4 days. BMMs were harvested to the 24-well plates (1×10^4 per well) and cultured in the complete medium containing M-CSF (30 ng/mL) and RANKL (100 ng/mL) for another 4 days. The osteoclasts were fixed and stained by using acid phosphatase and a leukocyte kit according to the manufacturer’s procedures.
In vitro bone resorption imaging assay. […]
Fluorescence images were captured by using the IVIS Spectrum imaging system with excitation […]

Cbz‐Leu‐Arg‐OH [CTSK-APPA]
fluorescence on/off ratio of HA-adsorbed probe (cathepsin K (CTSK); Ex 660 nm, 720 nm): 5.1 | enhancement factor for PA signal of HA-adsorbed probe (cathepsin K (CTSK); Ex 700 nm): approximately 2.8 | NIR fluorescence of bone-resorption slice vs normal bone slices [1]: stronger NIR fluorescence signal
